Measured values published in the supplement of paper PMC11061612.

Experiments:
Test in all cases: combination Emax (second highest fraction inhibited in the dose matrix, 72 h); higher = more inhibition; extreme values may be limits of the assay
SH-4 (Melanoma) = system: SH-4 (Melanoma)
Procedure, shortened: (§1)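 Bliss excess equals the observed combination effect minus the expected value EA + EB − EA·EB, where EA and EB are the effects of each agent alone. Combination Emax is the second-highest inhibition within the matrix. Inhibition was scaled from CellTiter-Glo 2.0 luminescence, with 0 set by vehicle wells and 1 by blank wells, after 72 hours of two-drug dosing of cells plated in 1536-well plates.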

[1] = system: PCI-30 (Head and Neck Carcinoma)
Procedure, shortened: as §1

[2] = system: KYSE-410 (Esophageal Squamous Cell Carcinoma)
Procedure, shortened: as §1

NCI-H28 (Mesothelioma) = system: NCI-H28 (Mesothelioma)
Procedure, shortened: as §1

[3] = system: TE-4 (Esophageal Squamous Cell Carcinoma)
Procedure, shortened: as §1

[4] = system: SU-DHL-6 (B-Cell Non-Hodgkin's Lymphoma)
Procedure, shortened: as §1

COLO-829 (Melanoma) = system: COLO-829 (Melanoma)
Procedure, shortened: as §1

[5] = system: UMC-11 (Other Solid Carcinomas)
Procedure, shortened: as §1

[6] = system: HCC-15 (Squamous Cell Lung Carcinoma)
Procedure, shortened: as §1

[7] = system: HO-1-u-1 (Oral Cavity Carcinoma)
Procedure, shortened: as §1

[8] = system: RT-112 (Bladder Carcinoma)
Procedure, shortened: as §1

[9] = system: SUP-T1 (T-Lymphoblastic Leukemia)
Procedure, shortened: as §1

[10] = system: MDA-MB-468 (Breast Carcinoma)
Procedure, shortened: as §1

HMV-II (Melanoma) = system: HMV-II (Melanoma)
Procedure, shortened: as §1

[11] = system: EN (Endometrial Carcinoma)
Procedure, shortened: as §1

[12] = system: Hs-633T (Other Solid Carcinomas)
Procedure, shortened: as §1

[13] = system: CAL-51 (Breast Carcinoma)
Procedure, shortened: as §1

NCI-H2461 (Mesothelioma) = system: NCI-H2461 (Mesothelioma)
Procedure, shortened: as §1

NCI-H2795 (Mesothelioma) = system: NCI-H2795 (Mesothelioma)
Procedure, shortened: as §1

[14] = system: LoVo (Colorectal Carcinoma)
Procedure, shortened: as §1

| Structure (SMILES) | combination Emax (SH-4 (Melanoma)) | combination Emax [1] | combination Emax [2] | combination Emax (NCI-H28 (Mesothelioma)) | combination Emax [3] | combination Emax [4] | combination Emax (COLO-829 (Melanoma)) | combination Emax [5] | combination Emax [6] | combination Emax [7] | combination Emax [8] | combination Emax [9] | combination Emax [10] | combination Emax (HMV-II (Melanoma)) | combination Emax [11] | combination Emax [12] | combination Emax [13] | combination Emax (NCI-H2461 (Mesothelioma)) | combination Emax (NCI-H2795 (Mesothelioma)) | combination Emax [14] |
| --- | --- | --- | --- | --- | --- | --- | --- | --- | --- | --- | --- | --- | --- | --- | --- | --- | --- | --- | --- | --- |
| CN(C)CCCOc1ccc(-c2ccc3ncc4c(c3c2)n(C2CCOCC2)c(=O)n4C)cn1 [AZD0156] + C=CCn1c(=O)c2cnc(Nc3ccc(N4CCN(C)CC4)cc3)nc2n1-c1cccc(C(C)(C)O)n1 [AZD1775] (first compound max 1 µM, partner max 1 µM) | 0.564 | 0.265 | 0.32 | 0.434 | 0.324 | 0.699 | 0.099 | 0.377 | 0.299 | 0.77 | 0.514 | 0.872 | 0.42 | 0.401 | 0.512 | 0.769 | 0.728 | 0.674 | 0.512 | 0.785 |
| CC1(C)CCC(CN2CCN(c3ccc(C(=O)NS(=O)(=O)c4ccc(NCC5CCOCC5)c([N+](=O)[O-])c4)c(Oc4cnc5[nH]ccc5c4)c3)CC2)=C(c2ccc(Cl)cc2)C1 [Venetoclax] + C[C@@H](Nc1cc(F)cc(F)c1)c1cc(C(=O)N(C)C)cc2c(=O)cc(N3CCOCC3)oc12 [AZD8186] (first compound max 1 µM, 7x7, partner max 3 µM) | 0.192 | 0.19 | 0.172 | 0.115 | 0.0248 | 1 | 0.243 | 0.143 | 0.173 | 0.267 | 0.472 | 0.461 | 0.387 | 0.263 | 0.422 | 0.186 | 0.0234 | 0.447 | 0.441 | 0.494 |
| CN(C)CCCOc1ccc(-c2ccc3ncc4c(c3c2)n(C2CCOCC2)c(=O)n4C)cn1 [AZD0156] + C[C@@H]1COCCN1C2=NC(=NC(=C2)C3(CC3)[S@](=N)(=O)C)C4=C5C=CNC5=NC=C4 [AZD6738] (first compound max 1 µM, 7x7, partner max 10 µM) | 0.465 | 0.659 | 0.297 | 0.452 | 0.604 | 0.629 | 0.159 | 0.642 | 0.146 | 0.943 | 0.919 | 0.78 | 0.527 | 0.335 | 0.581 | 0.925 | 0.95 | 0.71 | 0.7 | 0.867 |
| Cc1c2c(nn1C)CSCc1cc(n(C)n1)CSc1cc(c3ccccc3c1)OCCCc1c(C(=O)O)n(C)c3c-2c(Cl)ccc13 [AZD5991] + C[C@@H](Nc1cc(F)cc(F)c1)c1cc(C(=O)N(C)C)cc2c(=O)cc(N3CCOCC3)oc12 [AZD8186] (first compound max 1 µM, 7x7, partner max 3 µM) | 0.332 | 0.264 | 0.221 | 0.298 | 0.377 | 1 | 0.17 | 0.32 | 0.203 | 0.279 | 0.89 | 0.279 | 0.605 | 0.192 | 0.558 | 0.268 | 0.336 | 0.363 | 0.926 | 0.732 |
| NC1(C(=O)N[C@@H](CCO)c2ccc(Cl)cc2)CCN(c2ncnc3[nH]ccc23)CC1 [Capivasertib] + CCN(CCO)CCCOc1ccc2c(Nc3cc(CC(=O)Nc4cccc(F)c4)[nH]n3)ncnc2c1 [AZD2811] (first compound max 10 µM, 7x7, partner max 1 µM) | 0.323 | 0.28 | 0.303 | 0.416 | 0.748 | 1 | 0.35 | 0.879 | 0.773 | 0.848 | 0.375 | 0.83 | 0.561 | 0.445 | 0.661 | 0.432 | 0.651 | 0.564 | 0.413 | 0.632 |
| Cc1c2c(nn1C)CSCc1cc(n(C)n1)CSc1cc(c3ccccc3c1)OCCCc1c(C(=O)O)n(C)c3c-2c(Cl)ccc13 [AZD5991] + Cc1cc2ncnn2cc1Nc1ncc2c(n1)n(C1CCOCC1)c(=O)n2C [AZD7648] (first compound max 1 µM, 7x7, partner max 10 µM) | 0.284 | 0.323 | 0.229 | 0.298 | 0.517 | 1 | 0.144 | 0.625 | 0.207 | 0.418 | 0.854 | 0.466 | 0.462 | 0.273 | 0.563 | 0.391 | 0.365 | 0.422 | 0.941 | 0.573 |
| CC(=O)c1c(C)c2cnc(Nc3ccc(N4CCNCC4)cn3)nc2n(C2CCCC2)c1=O [Palbociclib] + Cn1cnc2c(F)c(Nc3ccc(Br)cc3Cl)c(C(=O)NOCCO)cc21 [Selumetinib] (first compound max 10 µM, 7x7, partner max 10 µM) | 0.886 | 0.223 | 0.261 | 0.379 | 0.403 | 0.806 | 0.614 | 0.462 | 0.547 | 0.465 | 0.427 | 0.599 | 0.441 | 0.809 | 0.184 | 0.599 | 0.289 | 0.395 | 0.89 | 0.679 |
| NC1(C(=O)N[C@@H](CCO)c2ccc(Cl)cc2)CCN(c2ncnc3[nH]ccc23)CC1 [Capivasertib] + C[C@@H]1COCCN1C2=NC(=NC(=C2)C3(CC3)[S@](=N)(=O)C)C4=C5C=CNC5=NC=C4 [AZD6738] (first compound max 10 µM, 7x7, partner max 10 µM) | 0.492 | 0.482 | 0.397 | 0.512 | 0.818 | 1 | 0.563 | 0.67 | 0.367 | 0.887 | 0.62 | 0.866 | 0.726 | 0.465 | 0.71 | 0.894 | 0.936 | 0.797 | 0.737 | 0.801 |
| Cc1nc(Nc2ncc(C(=O)Nc3c(C)cccc3Cl)s2)cc(N2CCN(CCO)CC2)n1 [Dasatinib] + CC(=O)Nc1cccc(-n2c(=O)n(C3CC3)c(=O)c3c(Nc4ccc(I)cc4F)n(C)c(=O)c(C)c32)c1 [Trametinib] (first compound max 2 µM, 7x7, partner max 1 µM) | 0.935 | 0.643 | 0.546 | 0.721 | 0.857 | 1 | 0.672 | 0.136 | 0.853 | 0.713 | 0.584 | 0.577 | 0.621 | 0.786 | 0.289 | 0.939 | 0.43 | 0.431 | 0.972 | 0.801 |
| C=CCn1c(=O)c2cnc(Nc3ccc(N4CCN(C)CC4)cc3)nc2n1-c1cccc(C(C)(C)O)n1 [AZD1775] + C1CN(CCC1(C(=O)N[C@@H](CCO)C2=CC=C(C=C2)Cl)N)C3=NC=NC4=C3C=CN4 [Capivasertib] (first compound max 3 µM, partner max 3 µM) | 0.715 | 0.477 | 0.663 | 0.56 | 0.88 | 0.994 | 0.322 | 0.696 | 0.878 | 0.913 | 0.836 | 0.916 | 0.741 | 0.592 | 0.715 | 0.897 | 0.941 | 0.67 | 0.408 | 0.937 |
| Cc1c2c(nn1C)CSCc1cc(n(C)n1)CSc1cc(c3ccccc3c1)OCCCc1c(C(=O)O)n(C)c3c-2c(Cl)ccc13 [AZD5991] + CC1(C)CCC(CN2CCN(c3ccc(C(=O)NS(=O)(=O)c4ccc(NCC5CCOCC5)c([N+](=O)[O-])c4)c(Oc4cnc5[nH]ccc5c4)c3)CC2)=C(c2ccc(Cl)cc2)C1 [Venetoclax] (first compound max 1 µM, 7x7, partner max 1 µM) | 0.642 | 0.218 | 0.156 | 0.185 | 0.261 | 1 | 0.213 | 0.821 | 0.323 | 0.358 | 0.99 | 0.304 | 0.662 | 0.151 | 0.608 | 0.231 | 0.521 | 0.181 | 0.793 | 0.147 |
| CN(CCO)CC[C@H](CSc1ccccc1)Nc1ccc(S(=O)(=O)NC(=O)c2ccc(N3CCC([C@@H](O)c4ccccc4-c4ccc(Cl)cc4)CC3)cc2)cc1S(=O)(=O)C(F)(F)F [AZD4320] + C=CCn1c(=O)c2cnc(Nc3ccc(N4CCN(C)CC4)cc3)nc2n1-c1cccc(C(C)(C)O)n1 [AZD1775] (first compound max 1 µM, partner max 1 µM) | 0.5 | 0.323 | 0.796 | 0.437 | 0.466 | 1 | 0.265 | 0.632 | 0.946 | 0.897 | 0.744 | 0.909 | 0.799 | 0.47 | 0.567 | 0.856 | 0.907 | 0.782 | 0.53 | 0.838 |
